Assay results reported in ChEMBL document CHEMBL1201862, “PubChem BioAssay data set” (2004).
Active and inactive are the calls of the source.

Assays:
[1] = target: T1, Sentrin-specific protease 7 (Homo sapiens, UniProt Q9BQF6); assay type: functional;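 also: Luminescence-based dose-response confirmation of ultra-high-throughput screening hits, measuring inhibition of SENP7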
T1 sequence (Q9BQF6 whole entry): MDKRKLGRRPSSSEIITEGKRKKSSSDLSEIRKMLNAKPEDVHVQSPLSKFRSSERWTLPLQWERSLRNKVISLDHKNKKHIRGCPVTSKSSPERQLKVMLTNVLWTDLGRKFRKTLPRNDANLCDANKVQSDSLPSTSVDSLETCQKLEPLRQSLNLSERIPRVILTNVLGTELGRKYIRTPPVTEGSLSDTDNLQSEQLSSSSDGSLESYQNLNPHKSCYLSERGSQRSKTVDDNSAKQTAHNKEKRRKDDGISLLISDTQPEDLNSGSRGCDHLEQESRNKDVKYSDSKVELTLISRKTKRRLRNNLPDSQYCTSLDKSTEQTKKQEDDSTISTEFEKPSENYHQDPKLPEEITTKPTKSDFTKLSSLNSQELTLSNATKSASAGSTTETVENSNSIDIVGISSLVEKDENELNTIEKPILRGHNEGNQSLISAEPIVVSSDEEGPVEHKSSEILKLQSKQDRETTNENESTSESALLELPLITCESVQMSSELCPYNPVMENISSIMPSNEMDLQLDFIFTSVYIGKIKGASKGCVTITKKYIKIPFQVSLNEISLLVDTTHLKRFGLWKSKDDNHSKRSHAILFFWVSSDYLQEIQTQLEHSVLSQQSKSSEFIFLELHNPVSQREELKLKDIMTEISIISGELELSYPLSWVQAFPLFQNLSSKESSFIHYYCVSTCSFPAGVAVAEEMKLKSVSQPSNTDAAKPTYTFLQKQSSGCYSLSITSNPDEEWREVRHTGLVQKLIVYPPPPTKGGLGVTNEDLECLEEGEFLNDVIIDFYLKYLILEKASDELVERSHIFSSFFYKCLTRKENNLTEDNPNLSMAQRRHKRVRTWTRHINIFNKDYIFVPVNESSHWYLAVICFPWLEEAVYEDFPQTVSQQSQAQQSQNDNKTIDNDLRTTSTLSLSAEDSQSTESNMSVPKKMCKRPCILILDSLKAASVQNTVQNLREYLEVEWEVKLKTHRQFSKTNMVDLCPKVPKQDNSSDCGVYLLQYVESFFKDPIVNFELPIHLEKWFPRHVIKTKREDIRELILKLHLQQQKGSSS

Caspase-3 = target: T2, Caspase-3 (Homo sapiens, UniProt P42574); assay type: functional;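 also: Dose-response selectivity test against caspase-3 for candidate inhibitors of sentrin-specific proteases (SENPs)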
T2 sequence (P42574 whole entry): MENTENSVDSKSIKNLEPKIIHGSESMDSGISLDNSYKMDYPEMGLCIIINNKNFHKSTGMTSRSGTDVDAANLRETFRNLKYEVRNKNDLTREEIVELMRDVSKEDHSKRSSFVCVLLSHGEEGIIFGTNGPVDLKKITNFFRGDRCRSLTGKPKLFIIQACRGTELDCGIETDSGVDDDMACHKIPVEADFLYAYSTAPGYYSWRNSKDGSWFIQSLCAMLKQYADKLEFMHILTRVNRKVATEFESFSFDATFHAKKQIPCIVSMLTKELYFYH

[2] = target: T3, Sentrin-specific protease 6 (Homo sapiens, UniProt Q9GZR1); assay type: functional;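 also: Luminescence-based dose-response confirmatory assay of SENP6 inhibition, following up an ultra-high-throughput screen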
T3 sequence (Q9GZR1 whole entry): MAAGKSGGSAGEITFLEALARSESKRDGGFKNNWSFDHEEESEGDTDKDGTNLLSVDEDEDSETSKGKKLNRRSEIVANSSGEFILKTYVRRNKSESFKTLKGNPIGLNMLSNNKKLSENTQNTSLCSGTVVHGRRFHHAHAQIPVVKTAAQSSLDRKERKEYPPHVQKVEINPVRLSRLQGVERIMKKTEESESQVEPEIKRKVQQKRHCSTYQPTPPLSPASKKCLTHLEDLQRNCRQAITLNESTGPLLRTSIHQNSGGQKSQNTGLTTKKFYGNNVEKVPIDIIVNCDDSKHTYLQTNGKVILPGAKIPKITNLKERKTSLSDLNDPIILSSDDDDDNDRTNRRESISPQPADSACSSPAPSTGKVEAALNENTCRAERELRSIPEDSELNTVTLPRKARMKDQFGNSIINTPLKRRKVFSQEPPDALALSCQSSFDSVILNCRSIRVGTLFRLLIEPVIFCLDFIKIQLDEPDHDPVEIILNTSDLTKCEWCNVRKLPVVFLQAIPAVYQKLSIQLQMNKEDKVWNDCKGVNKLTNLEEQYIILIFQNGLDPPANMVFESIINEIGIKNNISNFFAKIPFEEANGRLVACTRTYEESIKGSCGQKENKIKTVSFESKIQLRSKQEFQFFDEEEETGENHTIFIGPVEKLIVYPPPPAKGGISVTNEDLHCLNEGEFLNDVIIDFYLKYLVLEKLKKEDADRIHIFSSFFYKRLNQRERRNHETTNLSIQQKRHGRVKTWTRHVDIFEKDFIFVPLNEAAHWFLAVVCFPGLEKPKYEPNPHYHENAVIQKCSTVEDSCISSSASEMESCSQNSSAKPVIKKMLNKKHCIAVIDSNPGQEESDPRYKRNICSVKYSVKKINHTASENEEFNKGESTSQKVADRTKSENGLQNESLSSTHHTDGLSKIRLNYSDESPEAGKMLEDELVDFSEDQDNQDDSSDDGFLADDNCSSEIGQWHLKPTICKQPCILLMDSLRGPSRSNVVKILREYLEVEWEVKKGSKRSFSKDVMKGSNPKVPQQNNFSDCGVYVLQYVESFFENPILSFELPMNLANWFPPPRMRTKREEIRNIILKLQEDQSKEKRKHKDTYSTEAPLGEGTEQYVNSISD

[3] = target: T4, Sentrin-specific protease 8 (Homo sapiens, UniProt Q96LD8); assay type: functional;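 also: luminescence read-out of SENP8 inhibition, dose-response confirmation following an ultra-high-throughput screen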
T4 sequence (Q96LD8 whole entry): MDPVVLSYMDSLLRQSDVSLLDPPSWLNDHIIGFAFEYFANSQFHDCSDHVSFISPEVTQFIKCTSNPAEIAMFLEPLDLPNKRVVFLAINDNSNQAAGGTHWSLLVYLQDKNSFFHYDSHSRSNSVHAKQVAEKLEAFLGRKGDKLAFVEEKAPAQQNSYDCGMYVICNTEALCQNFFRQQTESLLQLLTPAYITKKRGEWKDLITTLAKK

[4] = loss of viability in HepG2 cells – cell-based, CellTiter-Glo, cherry-picked, cytotoxicity control for Shn3 inhibitor project, dose response (AID 624134); assay type: functional
[5] = non-specific 3'UTR reporter inhibition in Clone20-Shn3RL – cell-based, Renilla luciferase, cherry-picked, counter-screen for Shn3 inhibitor project, dose response (AID 624133); assay type: functional
[6] = reduction of Shn3 3'UTR-driven luciferase in osteoblasts – cell-based, Clone20 osteoblasts, firefly luciferase, cherry-picked, dose response (AID 624132); assay type: functional;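 also: firefly luciferase luminescence from reporter carrying the Shn3 3'UTR in osteoblasts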
[7] = system: Streptococcus sp. 'group A'; assay: Streptococcus pyogenes SK(-)GAS viability under kanamycin – luminescence, BacTiterGlo, confirmation, counter-screen for streptokinase expression inhibitor project, dose response (AID 1900); assay type: functional, organism-based
Streptococcus = assay: GAS UMAA2166 growth inhibition – luminescence, BacTiterGlo, counter-screen for streptokinase expression inhibitor project, dose response (AID 1915); assay type: functional, organism-based;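 also: potency for reduction of bacterial viability or growth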
Streptokinase A = target: T5, Streptokinase A (Streptococcus pyogenes serotype M1, UniProt P10520); assay: viability-normalized secreted streptokinase activity reduction – plasminogen activation absorbance, OD405, dose response (AID 1914); assay type: functional, Streptococcus pyogenes M1 GAS;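 also: secreted streptokinase activity via plasminogen activation per viability signal from cell pellet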
T5 sequence (P10520 whole entry): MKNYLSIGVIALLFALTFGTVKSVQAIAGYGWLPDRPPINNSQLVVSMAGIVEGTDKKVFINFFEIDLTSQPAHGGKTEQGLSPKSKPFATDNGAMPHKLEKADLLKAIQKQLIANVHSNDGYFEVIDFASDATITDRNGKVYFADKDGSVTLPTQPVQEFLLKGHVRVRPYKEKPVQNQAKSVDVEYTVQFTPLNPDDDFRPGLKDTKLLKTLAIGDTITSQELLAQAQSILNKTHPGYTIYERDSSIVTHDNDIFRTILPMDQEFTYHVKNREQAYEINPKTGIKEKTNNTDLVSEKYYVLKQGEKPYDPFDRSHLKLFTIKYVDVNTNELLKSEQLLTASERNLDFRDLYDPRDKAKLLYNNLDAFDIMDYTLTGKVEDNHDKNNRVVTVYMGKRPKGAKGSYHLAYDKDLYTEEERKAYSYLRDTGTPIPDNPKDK

BJ [8] = assay: cells; assay type: functional, cell-based; conditions: Homo sapiens
BJ [9] = assay: growth inhibition of engineered Ras-driven BJ cells – cell-based, alamar blue fluorescence, cherrypicked samples, dose response (AID 2631); assay type: functional; conditions: Homo sapiens;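 also: confirmatory dose-response assay in RAS-dependent BJ fibroblasts engineered with TERT, LT and ST, with cytotoxicity read by fluorescence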
[10] = DRD fibroblast viability loss – cell-based, non-viral oncogenic, luminescence, dose response (AID 1934); assay type: functional; conditions: Homo sapiens
[11] = alpha-synuclein stem-loop luciferase translation blockers – H4 neuroglioma cells, luminescence, confirmation (AID 1988); assay type: functional, cell-based
BJ [12] = assay: BJ-TERT fibroblast viability loss – cell-based, RAS-independent, luminescence, dose response (AID 1933); assay type: functional; conditions: Homo sapiens
[13] = luciferase reporter signal suppression in cells – H4 neuroglioma cells, luminescence, dose response (AID 1990); assay type: functional, cell-based
BJ [14] = assay: BJ-TERT-LT-ST fibroblast viability loss – cell-based, RAS-independent, luminescence, dose response (AID 1935); assay type: functional; conditions: Homo sapiens;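 also: BJ fibroblasts immortalized with TERT plus LT and ST oncogenes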
[15] = Luminescence Cell-Based Dose Response HTS to Identify Inhibitors of 5'UTR Stem-Loop Driven Prion Protein mRNA Translation in H4 Neuroglioblastoma Cells. [Related pubchem assays: 1827 (Project Summary), 1813 (Primary HTS)]; assay type: functional
[16] = HIV-1 AD8 envelope cell-cell fusion blockers – cherry-pick, dose response (AID 652062); assay type: functional, cell-based;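 also: luciferase signal from cell-cell fusion driven by HIV-1 clade B AD8 Env; potency is for inhibitors of fusion seen as a drop in luminescence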
[17] = blockade of melanocortin 4 receptor signaling – cell-based, plate reader, cherry pick, counter-screen for LGR2 antagonist project, dose response (AID 743444); assay type: functional;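 also: transfected HEK 293 cells stimulated with alpha-MSH peptide; potency of inhibitors of the alpha-MSH evoked signal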
[18] = A549 cell cytotoxicity, dose response, cytotoxicity control, plate reader, cherry-pick, antagonist series (AID 743412); assay type: functional, cell-based
[19] = viability loss in HEK293 cells – cell-based, plate reader, cherry-picked samples, cytotoxicity control, dose response (AID 743446); assay type: functional
[20] = toxicity toward HepG2 liver cells – cell-based, plate reader, cherry-pick, antagonist series, cytotoxicity control, dose response (AID 743416); assay type: functional
[21] = blockers of bursicon-stimulated LGR2 cAMP reporter – cell-based, HEK293, CRE-luciferase reporter, cherry pick, set 2, dose response (AID 743343); assay type: functional;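 also: transfected cells were stimulated with diluted bursicon conditioned medium after compound addition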

Structure (SMILES)	IC50 [1]	IC50 (Caspase-3)	IC50 [2]	IC50 [3]	AC50 [4]	AC50 [5]	AC50 [6]	also measured
N#Cc1ccsc1NC(=O)CSc1nnnn1-c1ccc(O)cc1	10.3 µM (active)	20.6 µM (active)	30.5 µM (active)	36.8 µM (active)				
COc1ccc(NC(=O)CSc2ncccc2C(=O)OC(C)C)cc1OC					41.9 µM (active)	1.54 µM (active)	4.1 µM (active)	
COc1ccc(-c2nc(NC(=O)C3CC(=O)N(c4ccc5c(c4)OCCO5)C3)sc2C)cc1 (stereo not given)					47.3 µM (active)	13.4 µM (active)	5.24 µM (active)	EC50 [7]: 21.7 µM (active); EC50 (Streptococcus): 63.6 µM (active); EC50 (Streptokinase A): > 150 µM (not active)
CCOc1ccc(CC(=O)Nc2ccc(NC(=O)c3ccco3)cc2)cc1OCC								EC50 (BJ [8]): 2.55 µM (active); EC50 (BJ [9]): > 66.7 µM (inactive); EC50 [10]: > 150 µM (not active); EC50 [11]: 8.44 µM (active); EC50 (BJ [12]): > 150 µM (not active); EC50 [13]: 11 µM (active); EC50 (BJ [14]): 9.89 µM (inconclusive); EC50 [15]: 6.05 µM (active)
CCN(C(=O)C1CCN(c2nc(-c3ccc(OC)cc3)no2)CC1)c1ccc(OC)cc1					62.5 µM (active)	11.8 µM (active)	3.17 µM (active)	
Cc1cccc(-n2ncc3c(N4CCC(C)CC4)ncnc32)c1	7.97 µM (active)	19.5 µM (active)	21.9 µM (active)	27.9 µM (active)				
CC(=O)c1ccccc1OCCOCCOCCOc1ccccc1C(C)=O								EC50 (BJ [8]): > 150 µM (not active); EC50 (BJ [9]): > 133 µM (inactive); EC50 [10]: > 150 µM (not active); EC50 [11]: > 120 µM (not active); EC50 (BJ [12]): 27 µM (active); EC50 [13]: > 120 µM (not active); EC50 (BJ [14]): > 150 µM (inconclusive)
O=C(CSc1ccccn1)NCc1ccc2c(c1)OCO2								EC50 (BJ [9]): > 133 µM (inactive)
CC1CN(S(=O)(=O)c2cc(C(=O)NCCC3=CCCCC3)ccc2Cl)CC(C)O1 (stereo not given)								AC50 [16]: 7.96 µM (active)
Oc1nc2ccccc2n1C1CCN(C(c2cccs2)c2nnnn2Cc2ccccc2)CC1 (stereo not given)					> 70 µM (inactive)	6.11 µM (active)	2.98 µM (active)	AC50 [17]: 1.76 µM (active); AC50 [18]: 13.7 µM (active); AC50 [19]: 29.8 µM (active); AC50 [20]: 44.4 µM (active); AC50 [21]: 2.74 µM (active)
C/C(=N\Nc1ccc([N+](=O)[O-])cc1)c1ccco1	6.51 µM (active)	18.4 µM (active)	10.6 µM (active)	73.8 µM (active)				
C/C(=N\OC(=O)c1ccc(Br)cc1)c1ccccn1	1.01 µM (active)	1.26 µM (active)	1.31 µM (active)	2.43 µM (active)				
COc1cccc(C(=O)Oc2ccc(/C=N/Nc3ccc(C(=O)O)cc3)cc2OC)c1	12.3 µM (active)	74.2 µM (active)	14.3 µM (active)	17.1 µM (active)				EC50 [7]: 5 µM (active); EC50 (Streptococcus): 19 µM (active); EC50 (Streptokinase A): > 150 µM (not active)
